Key:
Assay type in all cases: in vivo
[1] = system: Green Peach Aphid (Myzus Persicae); test: Green peach aphid test on dipped pepper plants; conditions: 120 h, pepper plant leaves dipped, after 5 days, read-out: mortality in comparison with untreated controls
Description: • The soybean bean cyst nematode culture was maintained in a greenhouse and soybean eggs and J2 larvae were obtained for testing by dislodging soybean cysts from the roots with a sieve. The cysts were broken to release the eggs and the eggs were maintained in water. The eggs hatched after 5-7 days at 28° C. To microtiter plates containing about 150 μg of compound, 80:20 acetone was added to each well and the solution was mixed to obtain the desired compound concentration. The nematode solution was added to the plate. The plates were then sealed and placed in an incubator at 27° C. and 50% (+/−2%) relative humidity. […] II Activity Against Insects II.1 Cotton Aphid (Aphis Gossypii) • The active compounds were formulated in 50:50 acetone:water and 100 ppm Kinetics surfactant. • Cotton plants at the cotyledon stage (one plant per pot) were infested by placing a heavily infested leaf from the main colony on top of each cotyledon. The aphids were allowed to transfer to the host plant overnight, and the leaf used to transfer the aphids was removed. The cotyledons were dipped in the test solution and allowed to dry. […] II.2 Green Peach Aphid (Myzus Persicae) • The active compounds were formulated in 50:50 acetone:water and 100 ppm Kinetic® surfactant. • Pepper plants in the 2nd leaf-pair stage (variety ‘California Wonder’) were infested with approximately 40 laboratory-reared aphids by placing infested leaf sections on top of the test plants. The leaf sections were removed after 24 hr. The leaves of the intact plants were dipped into gradient solutions of the test compound and allowed to dry. Test plants were maintained under fluorescent light (24 hour photoperiod) at about 25° C. and 20-40% relative humidity. […] II.3 Bean Aphid (Aphis Fabae) • The active compounds were formulated in 50:50 acetone:water and 100 ppm Kinetics surfactant. • Nasturtium plants grown in Metro mix in the 1st leaf-pair stage (variety ‘Mixed Jewle’) were infested with approximately 2-30 laboratory-reared aphids by placing infested cut plants on top of the test plants. The cut plants were removed after 24 hr. […]

[2] = system: Soybean Cyst Nematode (Heterodera Glycine); test: Soybean cyst nematode microtiter plate mortality test; conditions: after 72 hours, J2 larvae, immobility regarded as mortality, read-out: mortality compared to untreated controls
Description: I.2 Test Procedures for Soybean Cyst Nematode (Heterodera Glycine):
(§1) • The soybean bean cyst nematode culture was maintained in a greenhouse and soybean eggs and J2 larvae were obtained for testing by dislodging soybean cysts from the roots with a sieve. The cysts were broken to release the eggs and the eggs were maintained in water. The eggs hatched after 5-7 days at 28° C. To microtiter plates containing about 150 μg of compound, 80:20 acetone was added to each well and the solution was mixed to obtain the desired compound concentration. The nematode solution was added to the plate. The plates were then sealed and placed in an incubator at 27° C. and 50% (+/−2%) relative humidity. […] II Activity Against Insects II.1 Cotton Aphid (Aphis Gossypii) • The active compounds were formulated in 50:50 acetone:water and 100 ppm Kinetics surfactant. • Cotton plants at the cotyledon stage (one plant per pot) were infested by placing a heavily infested leaf from the main colony on top of each cotyledon. The aphids were allowed to transfer to the host plant overnight, and the leaf used to transfer the aphids was removed. The cotyledons were dipped in the test solution and allowed to dry. […]

[3] = system: Root-Knot Nematode (Meloidogyne incognita); test: Root-knot nematode microtiter plate mortality test; conditions: after 72 hours, J2 nematodes, immobility regarded as mortality, read-out: mortality compared to untreated controls
Description: • Test compounds were prepared and formulated into aqueous formulations using acetone. The formulations were tested using root knot nematode (2nd instar) and soybean cyst nematode (2nd instar) as target species. I.1 Test Procedures for Root-Knot Nematode (Meloidogyne incognita): • Tomato plants (var. Bonny Best) were grown in the greenhouse in plastic tubs (4 to 6 plants per tub). The plants and soil (a 50:50 mixture of sand and “New Egypt” sandy loam) were infested with M. incognita J2 (to establish the “in-house” colony, M. incognita J2 were initially acquired from Auburn University). The plants were kept pruned and were used on an “as needed” basis. The tomato plants were kept in the cylinder containing hydroponic solution and aerated until the nematodes were no longer present in the solution (usually about 60 days). The cultures were checked daily by eluting a small volume (approximately 20 ml) from the bottom of a funnel attached to the cylinder into a small crystallizing dish and observed using a binocular dissecting scope. […] These were counted by putting 25 μl of the nematode solution into a well of an unused well of an assay plate. […] After 72 hours, the population mortality was read, whereby immobility of nematodes was regarded as mortality.

[4] = system: Cotton Aphid (Aphis Gossypii); test: Cotton aphid test on dipped cotton cotyledons; conditions: 120 h, after 5 days, read-out: mortality in comparison with untreated controls
Description: as §1

Row | Compound | mortality at 300 ppm [1] [%] | mortality at 100 ppm [3] [%] | other results
1 | Cl/C(=N\N=Cc1cc2ccccc2o1)c1cccs1 [Example 1] | > 75 | – | –
2 | C/C(=N\N=Cc1cc2ccccc2o1)c1cccs1 [Example 5] | > 75 | – | –
3 | Cl/C(=N\N=CC=Cc1ccccc1)c1cccs1 [Example 11] | – | – | mortality at 100 ppm [2]: > 95%
4 | CO/C(=N\N=Cc1cc2ccccc2o1)c1cccs1 [Example 4] | – | > 95 | –
5 | CS/C(=N\N=Cc1cc2ccccc2o1)c1cccs1 [Example 2] | – | – | mortality at 300 ppm [4]: > 75%
6 | C/C(=N\N=CC=Cc1ccccc1)c1cccs1 [Example 12] | > 75 | > 95 | –

Source: patent US20080064730A1, “Azine Compounds for Combating Animal Pests” (BASF Aktiengesellschaft, priority 2004, published 2008)
